In publication PMC6426682 (ACS chemical neuroscience, 2018):

What was measured:
[1] = molecular target: uncoupled low affinity receptor (CB1); details: read-out: Ki for the uncoupled low affinity receptor; cited from earlier work
CB1 receptor [2] = molecular target: T1, CB1 receptor (Mus musculus, UniProt P47746); test: [3H]CP55,940 saturation binding in presence of allosteric modulator; details: Bmax of the radioligand at 10 μM of test compound; vehicle 1.56 ± 0.09
CB1 receptor [3] = molecular target: T1, CB1 receptor; test: [3H]SR141716 equilibrium radioligand binding; details: for remaining activity at 32 µM: 1.5 h, read-out: %[3H]SR141716 Binding ± S.E.; for effect on [3H]SR141716 binding (in words): 1 nM [3H]SR141716
CB1 receptor [4] = molecular target: T1, CB1 receptor; test: [3H]CP55,940 equilibrium radioligand binding; details: for [3H]CP55,940 Curve-fit top ± S.E.: mouse cerebellar membranes
[5] = in vivo; cited from earlier work
rats = details: cited from earlier work
[6] = cited from earlier work
CB1 receptor [7] = molecular target: T1, CB1 receptor; test: Agonist-stimulated [35S]GTP-γ-S binding assay in mouse cerebellar membranes; assay type: biochemical
human CB1 receptor = human CB1 receptor (Homo sapiens, UniProt P21554); test: CB1 calcium mobilization assay; assay type: cell-based; details: for IC50: CB1 Calcium assay IC50, against EC80 (100 nM) of CP55,940 in stable human CB1-CHO-RD-HGA16 cells, mean ± SEM; for fold reduction in potency compared to 1, CB1 calcium assay: relative to 1
human CB1 receptor, sequence (P21554 whole entry): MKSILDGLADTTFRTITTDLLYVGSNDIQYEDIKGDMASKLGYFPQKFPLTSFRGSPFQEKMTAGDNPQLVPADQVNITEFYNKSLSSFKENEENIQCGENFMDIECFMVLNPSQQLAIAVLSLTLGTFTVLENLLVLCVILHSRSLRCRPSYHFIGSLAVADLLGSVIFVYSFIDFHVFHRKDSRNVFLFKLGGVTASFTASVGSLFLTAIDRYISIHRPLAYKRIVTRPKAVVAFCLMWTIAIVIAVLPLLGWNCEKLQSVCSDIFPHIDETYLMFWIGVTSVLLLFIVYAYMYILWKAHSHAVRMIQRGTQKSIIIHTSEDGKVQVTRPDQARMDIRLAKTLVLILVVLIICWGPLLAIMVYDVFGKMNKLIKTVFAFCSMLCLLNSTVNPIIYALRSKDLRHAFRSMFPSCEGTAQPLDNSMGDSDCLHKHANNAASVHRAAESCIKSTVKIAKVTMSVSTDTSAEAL

T1 sequence (P47746 whole entry): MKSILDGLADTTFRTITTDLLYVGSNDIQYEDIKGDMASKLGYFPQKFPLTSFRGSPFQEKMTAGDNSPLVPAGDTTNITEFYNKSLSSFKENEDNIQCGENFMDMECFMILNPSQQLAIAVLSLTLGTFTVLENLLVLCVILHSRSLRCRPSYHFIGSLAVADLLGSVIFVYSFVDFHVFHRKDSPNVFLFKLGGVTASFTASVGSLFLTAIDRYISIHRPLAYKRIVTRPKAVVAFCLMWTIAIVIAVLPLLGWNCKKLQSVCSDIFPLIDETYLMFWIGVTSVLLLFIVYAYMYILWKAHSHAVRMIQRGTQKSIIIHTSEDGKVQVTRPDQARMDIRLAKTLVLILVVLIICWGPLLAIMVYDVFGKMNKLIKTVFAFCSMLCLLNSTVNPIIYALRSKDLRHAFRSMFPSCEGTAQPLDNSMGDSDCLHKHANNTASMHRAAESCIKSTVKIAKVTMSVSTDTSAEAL

Row | Compound | [3H]CP55,940 Bmax ± S.E. (CB1 receptor [2]) [pmol/mg] | IC50 (CB1 receptor [3]) [µM] | remaining activity at 32 µM (CB1 receptor [3]) [%] | EC50 (CB1 receptor [4]) [µM] | [3H]CP55,940 Curve-fit top ± S.E. (CB1 receptor [4]; 1 nM [3H]CP55,940) | further results
1 | CCCCCCC(C)(C)c1ccc([C@@H]2C[C@H](O)CC[C@H]2CCCO)c(O)c1 [CP55,940] | – | – | – | – | – | Ki [1]: ~0.1 µM
2 | O=C(Nc1ccc(Cl)cc1)Nc1cccc(-c2cccc(N3CCCC3)n2)c1 [Compound 1, 1-(4-Chlorophenyl)-3-{3-[6-(pyrrolidin-1-yl)pyridin-2-yl]phenyl}urea, reference compound] | 4.53 ± 0.29 | 12.3 | 20.4 ± 3.05 | 2.04 | – | [3H]CP55,940 maximum binding level (CB1 receptor [4]; 1 nM [3H]CP55,940): 256%; Emax (CB1 receptor [4]; 1.5 h, read-out: [3H]CP55,940 Curve-fit top ± S.E.): 256 ± 5.59%; food intake and body weight [5]: demonstrated efficacy in reducing food intake and body weight; prime-induced reinstatement of extinguished cocaine-seeking behavior (rats): attenuated prime-induced reinstatement of extinguished cocaine-seeking behavior in rats; tetrahydrocannabinol-induced anti-nociception [6]: attenuated tetrahydrocannabinol-induced anti-nociception
3 | O=C(Nc1ccc(Cl)cc1)Nc1cccc(-c2ccoc2)c1 [Compound 8, 3‐(4‐Chlorophenyl)‐1‐[3‐(furan‐3‐yl)phenyl]urea] | 3.22 ± 0.19 | 17.4 | 34.9 ± 2.43 | 7.41 | 174.1 ± 8.86 | fold less potent than 1 in the GTP-γ-S assay (CB1 receptor [7]; relative to 1): ~ 4 fold
4 | O=C(Nc1ccc(Cl)cc1)Nc1cccc(-c2ccsc2)c1 [Compound 9, 3‐(4‐Chlorophenyl)‐1‐[3‐(thiophen‐3‐yl)phenyl]urea] | – | 11.2 | 20.4 ± 2.13 | 4.57 | 264.6 ± 9.81 | –
5 | O=C(Nc1ccc(Cl)cc1)Nc1cccc(-c2cccs2)c1 [Compound 10, 3‐(4‐Chlorophenyl)‐1‐[3‐(thiophen‐2‐yl)phenyl]urea] | – | 28.8 | 45.54 ± 0.15 | 5.75 | 199.8 ± 8.78 | –
6 | Cc1cc(-c2cccc(NC(=O)Nc3ccc(Cl)cc3)c2)cs1 [Compound 11, 3‐(4‐Chlorophenyl)‐1‐[3‐(5‐methylthiophen‐3‐yl)phenyl]urea] | 3.64 ± 0.17 | 83.2 | 73.2 ± 5.77 | 3.89 | 226.0 ± 5.82 | effect on [3H]SR141716 binding (in words) (CB1 receptor [3]): only exhibited a slight reduction in [^3H]SR141716 binding; fold reduction in inhibitory potency on introduction of a methyl group, GTP-γ-S assay (CB1 receptor [7]; relative to the 3-thiophenyl analogue (9)): 5 fold
7 | Cc1ccc(-c2cccc(NC(=O)Nc3ccc(Cl)cc3)c2)s1 [Compound 12, 3‐(4‐Chlorophenyl)‐1‐[3‐(5‐methylthiophen‐2‐yl)phenyl]urea] | – | 22.9 | 86.9 ± 5.87 | 13.2 | 233.3 ± 20.53 | effect on [3H]SR141716 binding (in words) (CB1 receptor [3]): only exhibited a slight reduction in [^3H]SR141716 binding
8 | O=C(Nc1ccc(Cl)cc1)Nc1cccc(-c2ccc[nH]2)c1 [Compound 13, 3‐(4‐Chlorophenyl)‐1‐[3‐(1H‐pyrrol‐2‐yl)phenyl]urea] | 5.87 ± 0.15 | 14.1 | 26.6 ± 5.68 | 1.38 | 458.3 ± 16.25 | [3H]CP55,940 maximum binding level (CB1 receptor [4]; 1 nM [3H]CP55,940): 458%; fold increase of [3H]CP55,940 binding level compared to 1 (CB1 receptor [4]; relative to 1): more than 2 fold; IC50 (human CB1 receptor): 0.165 to 0.169 µM; fold reduction in potency compared to 1, CB1 calcium assay (human CB1 receptor): about 3 fold
9 | Cn1cccc1-c1cccc(NC(=O)Nc2ccc(Cl)cc2)c1 [Compound 14, 3‐(4‐Chlorophenyl)‐1‐[3‐(1‐methyl‐1H‐pyrrol‐2‐yl)phenyl]urea] | – | 17.8 | 41.4 ± 3.26 | 5.62 | 164.5 ± 8.61 | IC50 (human CB1 receptor): 0.165 to 0.169 µM; fold reduction in potency compared to 1, CB1 calcium assay (human CB1 receptor): about 3 fold
10 | CC(C)(C)OC(=O)n1cccc1-c1cccc(NC(=O)Nc2ccc(Cl)cc2)c1 [Compound 15] | – | 8.51 | 17.2 ± 4.12 | 14.8 | 15.5 ± 24.12 | effect on [3H]CP55,940 binding (in words) (CB1 receptor [4]; 1 nM [3H]CP55,940): significantly decreased the binding of the radioligand; IC50 (CB1 receptor [7]): 3.24 µM; IC50 (human CB1 receptor): 3.44 ± 0.451 µM
11 | O=C(Nc1ccc(Cl)cc1)Nc1cccc(-c2cscn2)c1 [Compound 16, 3‐(4‐Chlorophenyl)‐1‐[3‐(1,3‐thiazol‐4‐yl)phenyl]urea] | – | 25.7 | 44.3 ± 1.42 | 10.7 | 224.2 ± 15.85 | –
12 | O=C(Nc1ccc(Cl)cc1)Nc1cccc(-c2cncs2)c1 [Compound 17, 3‐(4‐Chlorophenyl)‐1‐[3‐(1,3‐thiazol‐5‐yl)phenyl]urea] | 3.57 ± 0.25 | 2.95 | 50.6 ± 2.04 | 6.46 | 181.2 ± 8.15 | –
13 | O=C(Nc1ccc(Cl)cc1)Nc1cccc(-c2nccs2)c1 [Compound 18, 3‐(4‐Chlorophenyl)‐1‐[3‐(1,3‐thiazol‐2‐yl)phenyl]urea] | – | 16.6 | 37.7 ± 0.76 | 5.13 | 134.2 ± 4.47 | –
14 | O=C(Nc1ccc(Cl)cc1)Nc1cccc(-c2ncc[nH]2)c1 [Compound 19, 3‐(4‐Chlorophenyl)‐1‐[3‐(1H‐imidazol‐2‐yl)phenyl]urea] | – | 123 | 34.8 ± 8.94 | 10.2 | 355.7 ± 27.39 | [3H]CP55,940 maximum binding level (CB1 receptor [4]; 1 nM [3H]CP55,940): 355%; fold reduction in potency compared to 1, CB1 calcium assay (human CB1 receptor): around 16 fold
